Five compounds from US20240425541A1, “OLIGOSACCHARIDE COMPOUNDS AND COMPLEXES” (priority 2021, published 2024) can be followed below.

SMILES strings stand for the structures.

Data set [1] can be described thus: Hydrodynamic diameter of complexes by dynamic light scattering (DLS). It is filed as physicochemical. The method, then: Sizes of complexes described in the present examples were analyzed by DynaPro PlateReader II, using dynamic light scattering (DLS) for calculating the hydrodynamic diameter of complexes. The formulations are measured by diluting the sample to 0.0125 mg/mL RNA in 120 μl of MGB (10 mM MES, pH 6.1, 5% D-Glucose) 5% in wells of a 96-well plate. Ten acquisitions are recorded per well, each lasting 5 seconds.

For a further data set, the system named is female BALB/c mice. In words: In-vivo luciferase expression (bioluminescence) in applied tissue after i.m. injection of formulated modRNA or saRNA. The conditions noted are these: modRNA i.m., N/P 6. The method, then:
Eighteen female BALB/c mice were divided into […] study groups. All groups received the same amount of formulated luciferase encoding modRNA or saRNA (1 μg), applied i.m. to each leg. At […] time points (6 hours, 24 hours, 72 hours, 6 days, 8 days, 20 days), in-vivo luciferase expression in applied tissue was measured. Three modRNA groups were formulated with JRL13 at three different N/P Ratios (1, 6, or 12) and three saRNA groups were formulated with JRL13 at three different N/P Ratios (either 1, 6 or 12). N/P ratio is calculated based on the JRL13-RNA charges ratio, as described herein. […] FIG. 4C is a bar graph illustrating quantified bioluminescence over the duration of the experiment for example compositions having indicated N/P ratios comprising modRNA and JRL13. FIG. 4D is a bar graph illustrating quantified bioluminescence over the duration of the experiment for example compositions having indicated N/P ratios comprising saRNA and JRL13.
The present example examines the impact of different cationic groups on intramuscular delivery of saRNA. […] At six time points (6 hours, 24 hours, 72 hours, 6 days, 9 days, 20 days), in-vivo luciferase expression in applied tissue was measured. […] FIG. 5B is a bar graph illustrating quantified bioluminescence over the duration of the experiment and normalized to the JRL13-saRNA group. […]

Data set [2] concerns Hemagglutinin (HA) protein of the influenza strain California/7/2009. Nature of the data set: Anti-Influenza HA IgG in serum by enzyme-linked immunosorbent assay after i.m. vaccination. It is filed as in vivo. The note with it: for IgG concentration against HA: oligosaccharide + Tween40 1:0.5, HA modRNA 0.5 μg i.m. prime/boost day 0/day 28, N/P6.
The next data set deals with Influenza HA peptides. Nature of the data set: CD4/CD8 T-Cell response to Influenza HA peptides by IFN-ELISPOT of splenocytes after i.m. vaccination. It counts as in vivo, influenza strain California/7/2009. The note with it: JLF99 + Tween20 1:0.5, HA modRNA 1 μg i.m. prime/boost d0/d28, N/P 6.
A further data set relates to Influenza. In words: Virus neutralizing titers by VNT Assay after i.m. vaccination. The note with it: JLF99 + Tween20 1:0.5, HA modRNA 1 μg i.m. prime/boost d0/d28, N/P 6. It counts as in vivo, influenza strain California/7/2009. From the text: The animals were subjected to non-invasive serological surveillance over 49 days at different time points (day 0, day 14, day 21, day 28, day 49) and spleen was extracted at the end of the experiment for quantification of CD4/CD8 T-Cell response to Influenza HA peptides. Anti-Influenza HA antibodies in serum were quantified by enzyme-linked immunosorbent assay. Virus neutralizing titers were quantified by VNT Assay. CD4/CD8 T-Cell response was quantified by via IFN-ELISPOT of Splenocytes. FIG. 16A illustrates serological levels of specific IgG against HA over the course of the experiment. FIG. 16B illustrates Influenza specific neutralizing titers over the course of the experiment. FIG. 16C illustrates end-point titration of the serological levels of specific IgG against HA. FIG. 16D illustrates the CD8/CD4 response against HA-peptide pools.

For the next data set, the system named is hPBMCs. In words: Pro-inflammatory cytokine secretion by hPBMCs 24 hours after transfection (MSD Kit). It is filed as cell-based, human. The conditions noted are these: for Level of secretion of pro-inflammatory cytokines, IL-6, TNF-α, IL-1 and IFN-γ: oligosaccharide + Tween40 1:0.5, modRNA N/P 6, 24 hours, 10^6 hPBMCs. The method, then: All groups received modRNA formulated at N/P 6. Formulations were complexed with RNA in MBG Buffer (final concentration 5% w/v Glucose, 10 mM MES, pH 6.1), at RNA final concentration of 0.15 mg/ml and the mixing ratio of the RNA containing solution and the oligosaccharide+Tween40 containing solution was 9:1 (v:v) for all the cases. IL-6, TNF-α, IL-1p and IFN-γ secretion after 24 hours of transfection of 10^6 hPMBCs was evaluated in the supernatants using MSD Kit Standard Protocol.
FIG. 19A is a plot illustrating IL-6 secretion by hPBMCs upon exposure to different doses of tested formulations. FIG. 19B is a plot illustrating TNF-α secretion by hPBMCs upon exposure to different doses of tested formulations. FIG. 19C is a plot illustrating IL-1p secretion by hPBMCs upon exposure to different doses of tested formulations. FIG. 19D is a plot illustrating IFN-γ secretion by hPBMCs upon exposure to different doses of tested formulations. In the second part of the experiment, the same tested formulations were used in a vaccination study.

Data set [3] relates to Glycoprotein (Gc) of the Crimean-Congo Hemorrhagic Fever Virus (CCHFV). It counts as in vivo.
Another data set relates to CCHFV-Gc peptides. It is filed as in vivo, Crimean-Congo Hemorrhagic Fever Virus. The note with it: JLF99 + Tween40 1:0.5, Gc saRNA 1.3 μg i.m. prime/boost, C57BL/6 IFNAR −/− mice.
[4] abbreviates: JLF99 + Tween20 1:0.5, HA modRNA 1 μg i.m. prime/boost d0/d28, N/P 6.

For `CCCCCCCCCC(=O)OC1C(OC(=O)CCCCCCCCC)[C@H](OC(=O)CCCCCCCCC)C(CSCCNC(=S)NCCN(C)C)O[C@@H]1O[C@H]1OC(CSCCNC(=S)NCCN(C)C)[C@@H](OC(=O)CCCCCCCCC)C(OC(=O)CCCCCCCCC)C1OC(=O)CCCCCCCCC` (stereo partly drawn) [JLF41], the “Difference in particle size between N/P 1 and N/P 6” value in data set [1] (modRNA) was “greater difference”.

Turning to `CCCCCCCCCC(=O)OC1C(OC(=O)CCCCCCCCC)[C@H](OC(=O)CCCCCCCCC)C(CSCCNC(=S)NCCN2CCOCC2)O[C@@H]1O[C@H]1OC(CSCCNC(=S)NCCN2CCOCC2)[C@@H](OC(=O)CCCCCCCCC)C(OC(=O)CCCCCCCCC)C1OC(=O)CCCCCCCCC` (stereo partly drawn) [JLF99], the Hydrodynamic diameter entry in data set [1] (saRNA, N/P 6) is “about 150 nm”. For the same compound, the “modRNA expression (bioluminescence normalized to the JLF41-modRNA group)” value with female BALB/c mice is “promising modRNA expression”. Further, in data set [2] (setting [4]), the “IgG against HA-antigen over the course of the experiment versus LNP benchmark” value is “no apparent differences” and the “Serological concentration of IgG at the end-point (day 49)” value is listed as “comparable to the LNP group”. Moreover, the “Delivery of and immune response to different RNA platforms” value in data set [2] (JLF99 + Tween20 1:0.5, taRNA, saRNA or modRNA 1 μg i.m. prime/boost, N/P 6) was “functionally delivered all the RNAs upon i.m injection and elicited a strong immune response”. Moreover, the “IgG concentration against HA” value in data set [2] is “then by JLF99 and JLF218”. Further, the “CD4-CD8 response versus LNP benchmark” value in the data set with Influenza HA peptides is “no significant difference”. Moreover, the “Virus neutralizing titers versus LNP benchmark” value in the data set on Influenza is “same findings”. Moreover, the Adjuvanticity entry in the data set with hPBMCs (oligosaccharide + Tween40 1:0.5, modRNA N/P 6) is “strong adjuvanticity”. In addition, in data set [3] (JLF99 + Tween40 1:0.5, Gc saRNA 1.3 μg i.m. prime/boost d0/d28, N/P6, C57BL/6 IFNAR −/− mice), the “Immunological response to low immunogenic antigen CCHFV-Gc” value is given as “strong immunological response”. For the same compound, the “Antibody levels versus LNP benchmark” value in data set [3] (after d28 (prior boost), JLF99 + Tween40 1:0.5, Gc saRNA 1.3 μg i.m., C57BL/6 IFNAR −/− mice) was “identical to the ones achieved by the LNP benchmark”. For the same compound, in data set [3] (d14, JLF99 + Tween40 1:0.5, Gc saRNA 1.3 μg i.m., C57BL/6 IFNAR −/− mice), the “Antibody level versus LNP benchmark” value is “lower than the LNP”. For the same compound, the “T-cell responses against Gc-peptides versus LNP benchmark” value with CCHFV-Gc peptides is “equally strong”.

Take `CCCCCCCCCC(=O)OC1C(OC(=O)CCCCCCCCC)[C@H](OC(=O)CCCCCCCCC)C(CSCCNC(=S)NCCn2ccnc2)O[C@@H]1O[C@H]1OC(CSCCNC(=S)NCCn2ccnc2)[C@@H](OC(=O)CCCCCCCCC)C(OC(=O)CCCCCCCCC)C1OC(=O)CCCCCCCCC` (stereo partly drawn) [JLF110]: the “Level of secretion of pro-inflammatory cytokines, IL-6, TNF-α, IL-1 and IFN-γ” value in the data set on hPBMCs was “medium levels of secretion”.

With `CCCCCCCCCC(=O)OC[C@@]1(O[C@H]2OC(CSCCNC(=S)NCCN3CCOCC3)[C@@H](OC(=O)CCCCCCCCC)C(OC(=O)CCCCCCCCC)C2OC(=O)CCCCCCCCC)O[C@H](CSCCNC(=S)NCCN2CCOCC2)[C@@H](OC(=O)CCCCCCCCC)[C@@H]1OC(=O)CCCCCCCCC` (stereo partly drawn) [JLF218], the “IgG concentration against HA” value in data set [2] is “then by JLF99 and JLF218”.

On to `CCCCCCCCCC(=O)OC1C(OC(=O)CCCCCCCCC)[C@H](OC(=O)CCCCCCCCC)C(CSCCNC(=S)NCCN2CCC(C(N)=O)CC2)O[C@@H]1O[C@H]1OC(CSCCNC(=S)NCCN2CCC(C(N)=O)CC2)[C@@H](OC(=O)CCCCCCCCC)C(OC(=O)CCCCCCCCC)C1OC(=O)CCCCCCCCC` (stereo partly drawn) [JLF244], for which the “IgG concentration against HA” value in data set [2] is on record as “highest IgG concentration”. Moreover, in the data set with hPBMCs, the “Level of secretion of pro-inflammatory cytokines, IL-6, TNF-α, IL-1 and IFN-γ” value was “highest level of secretion”.
